Assay results: US11957684B2, “Treatment of heavy menstrual bleeding associated with uterine fibroids” (Sumitomo Pharma Switzerland GmbH, priority 2016, dated 2024)

Columns and labels:
FIG. 75 = assay: FIG. 75
Source text: Table printed on a drawing sheet, FIG. 75
First reader's note: Each body row is one statistic (N, Mean, SD, quartiles, range) of the plasma concentration for one dose group, so N rows are subject counts and SD rows are errors; the dose group name is printed only on the N row and is repeated here for its group.

FIG. 167 = assay: FIG. 167
Source text: Table printed on a drawing sheet, FIG. 167
First reader's note: Units stand in the cells; each column is one drug and the rows are its properties.

[1] = literature (Struthers et al. 2009); cited from earlier work

Source text for FIG. 73: First reader's note: Each row is one summary statistic (N, mean, SD, quartiles, range) of the plasma concentration for one dose group; the N rows are subject counts, not ng/mL, and the columns are visit/sampling times.

Compound	Visit | Week 0: 0.5-[…] (FIG. 73) [ng/mL]	Visit | Week 0: 2-5hr (FIG. 73) [ng/mL]	Visit | Week 2: 2-5hr (FIG. 73) [ng/mL]	Visit | Week 2: Predose (FIG. 73) [ng/mL]	Visit | Week 4: 2-5hr (FIG. 73) [ng/mL]	Visit | Week 4: Predose (FIG. 73) [ng/mL]	Visit | Week 8: 0.5-[…] (FIG. 73) [ng/mL]	Visit | Week 8: 2-5hr (FIG. 73) [ng/mL]	Visit | Week 8: Predose (FIG. 73) [ng/mL]	Visit | Week 12 (FIG. 73) [ng/mL]	Visit | Week 16: Predose (FIG. 73) [ng/mL]	Visit | Week 20: Predose (FIG. 73) [ng/mL]	Visit | Week 24 (FIG. 73) [ng/mL]	Visit | Week 2: Predose (FIG. 75) [ng/mL]	Visit | Week 4: Predose (FIG. 75) [ng/mL]	Visit | Week 12 (FIG. 75) [ng/mL]	Visit | Week 2: 0.5-[…] (FIG. 73) [ng/mL]	Visit | Week 4: 0.5-[…] (FIG. 73) [ng/mL]	Visit | Week 8: Predose (FIG. 75) [ng/mL]	Observed Half-life (FIG. 167) [h]	other results
CONC(=O)Nc1ccc(-c2sc3c(c2CN(C)C)c(=O)n(-c2ccc(OC)nn2)c(=O)n3Cc2c(F)cccc2F)cc1 [Compound 1 10 mg]	0.5290	0.5641	0.8025	0.3100	0.9672	0.2670	1.324	0.8301	0.3406	0.2783	0.3251	0.3138	0.2811	0.0898	0.1880	0.8620	–	–	–	–	Visit | Week 2: 0.5-[…] (FIG. 75): 0.9860 ng/mL; Visit | Week 2: 2-5hr (FIG. 75): 0.8280 ng/mL; Visit | Week 4: 0.5-[…] (FIG. 75): 0.9140 ng/mL; Visit | Week 4: 2-5hr (FIG. 75): 0.3720 ng/mL; Visit | Week 8: 0.5-[…] (FIG. 75): 2.192 ng/mL; Visit | Week 8: 2-5hr (FIG. 75): 1.320 ng/mL; Visit | Week 16: Predose (FIG. 75): 0.1500 ng/mL
CONC(=O)Nc1ccc(-c2sc3c(c2CN(C)C)c(=O)n(-c2ccc(OC)nn2)c(=O)n3Cc2c(F)cccc2F)cc1 [Compound 1 20 mg]	2.784	2.154	2.981	0.8002	3.567	0.6640	3.437	2.643	0.8032	0.6904	0.6280	0.7132	0.6712	0.8990	0.3880	0.8320	2.912	3.515	0.3380	–	Visit | Week 0: 0.5-[…] (FIG. 75): 7.570 ng/mL; Visit | Week 24 (FIG. 75): 0.7470 ng/mL
CONC(=O)Nc1ccc(-c2sc3c(c2CN(C)C)c(=O)n(-c2ccc(OC)nn2)c(=O)n3Cc2c(F)cccc2F)cc1 [Compound 1 40 mg]	7.424	7.680	7.550	2.383	8.479	2.315	10.29	11.20	2.233	1.987	1.995	2.240	1.908	–	–	1.520	9.210	11.61	3.580	–	–
COc1cccc(-c2c(C)n(Cc3c(F)cccc3C(F)(F)F)c(=O)n(C[C@H](NCCCC(=O)O)c3ccccc3)c2=O)c1F [Elagolix^2]	–	–	–	–	–	–	–	–	–	–	–	–	–	–	–	–	–	–	–	2 to 6	–
CONC(=O)Nc1ccc(-c2sc3c(c2CN(C)C)c(=O)n(-c2ccc(OC)nn2)c(=O)n3Cc2c(F)cccc2F)cc1 [Relugolix^1]	–	–	–	–	–	–	–	–	–	–	–	–	–	–	–	–	–	–	–	37 to 42	–
COc1cccc(-c2c(C)n(Cc3c(F)cccc3C(F)(F)F)c(=O)n(C[C@H](NCCCC(=O)O)c3ccccc3)c2=O)c1F [elagolix]	–	–	–	–	–	–	–	–	–	–	–	–	–	–	–	–	–	–	–	–	half-life [1]: 2.4 to 6.3 h
